Assay results: the supplement of paper PMC11061612

Tests used:
[1] = compound: C1CN(CCC1(C(=O)N[C@@H](CCO)C2=CC=C(C=C2)Cl)N)C3=NC=NC4=C3C=CN4 [AZD5363]; settings: max 10 µM
Outline: (§1)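 Following 24 hours at 37°C and 5% CO2, cancer cell lines in 1536-well plates with 7.5 μl DMEM/F12 or RPMI and 10% FBS were dosed for 72 hours, final DMSO typically being 0.2%. CellTiter-Glo 2.0 luminescence, scaled between blank-well and DMSO-well means, gave the viability readout. Dose responses were fitted to a two-parameter logistic curve with a non-linear mixed effects model, and the single-agent IC50 was derived from this fit.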

[2] = compound: COc1cccc2c1C(=O)c1c(O)c3c(c(O)c1C2=O)C[C@@](O)(C(=O)CO)C[C@@H]3O[C@H]1C[C@H](N)[C@H](O)[C@H](C)O1 [Doxorubicin]; settings: max 1 µM
Outline: as §1

[3] = compound: CN(C)CCCOc1ccc(-c2ccc3ncc4c(c3c2)n(C2CCOCC2)c(=O)n4C)cn1 [AZD0156]; settings: max 3 µM
Outline: as §1

[4] = compound: CN(CC[C@H](CSC1=CC=CC=C1)NC2=C(C=C(C=C2)S(=O)(=O)NC(=O)C3=CC=C(C=C3)N4CCC(CC4)[C@H](C5=CC=CC=C5C6=CC=C(C=C6)Cl)O)S(=O)(=O)C(F)(F)F)CCO [AZD4320]; settings: max 1 µM
Outline: as §1

[5] = compound: Nc1ccn([C@@H]2O[C@H](CO)[C@@H](O)C2(F)F)c(=O)n1 [Gemcitabine]; settings: max 0.3 µM
Outline: as §1

[6] = compound: CC1(C)CCC(CN2CCN(c3ccc(C(=O)NS(=O)(=O)c4ccc(NCC5CCOCC5)c([N+](=O)[O-])c4)c(Oc4cnc5[nH]ccc5c4)c3)CC2)=C(c2ccc(Cl)cc2)C1 [Venetoclax]; settings: max 1 µM
Outline: as §1

[7] = compound: N#Cc1cnc(Nc2cc(NC[C@H]3CNCCO3)c(C(F)(F)F)cn2)cn1 [SRA737]; settings: max 10 µM
Outline: as §1

[8] = compound: COc1cc([C@@H]2c3cc4c(cc3[C@@H](O[C@@H]3O[C@@H]5CO[C@@H](C)O[C@H]5[C@H](O)[C@H]3O)[C@H]3COC(=O)[C@H]23)OCO4)cc(OC)c1O [Etoposide]; settings: max 10 µM
Outline: as §1

[9] = compound: O=C(Nc1ccc2[nH]nc(-c3ccncc3)c2c1)[C@@H]1CCN(CC(=O)N2CCN(c3ccc(-c4ncccn4)cc3)CC2)C1; settings: max 5 µM
Outline: as §1

[10] = compound: CC(C)n1c(=O)n(C)c2cnc3cc(F)c(-c4ccc(OCCCN5CCCCC5)nc4)cc3c21 [AZD1390]; settings: max 0.3 µM
Outline: as §1

[11] = compound: CC(=O)Nc1cccc(-n2c(=O)n(C3CC3)c(=O)c3c(Nc4ccc(I)cc4F)n(C)c(=O)c(C)c32)c1 [Trametinib]; settings: max 1 µM
Outline: as §1

[12] = compound: CC(=O)O[C@H]1C(=O)[C@@]2(C)[C@H]([C@H](OC(=O)c3ccccc3)[C@]3(O)C[C@H](OC(=O)[C@H](O)[C@@H](NC(=O)c4ccccc4)c4ccccc4)C(C)=C1C3(C)C)[C@]1(OC(C)=O)CO[C@@H]1C[C@@H]2O [Paclitaxel]; settings: max 3 µM
Outline: as §1

[13] = compound: C1CC(C1)(C(=O)[O-])C(=O)[O-].N.N.[Pt+2] [Carboplatin]; settings: max 10 µM
Outline: as §1

[14] = compound: C[C@@H](Oc1cc(-c2cnn(C3CCNCC3)c2)cnc1N)c1c(Cl)ccc(F)c1Cl [Crizotinib]; settings: max 10 µM
Outline: as §1

[15] = compound: NC1(c2ccc(-c3nc4ccn5c(=O)[nH]nc5c4cc3-c3ccccc3)cc2)CCC1 [MK-2206]; settings: max 10 µM
Outline: as §1

[16] = compound: C[C@@H]1COCCN1C2=NC(=NC(=C2)C3(CC3)[S@](=N)(=O)C)C4=C5C=CNC5=NC=C4 [AZD6738]; settings: max 10 µM
Outline: as §1

[17] = compound: CCc1c2c(nc3ccc(O)cc13)-c1cc3c(c(=O)n1C2)COC(=O)[C@]3(O)CC [SN-38]; settings: max 0.3 µM
Outline: as §1

[18] = compound: Cn1cnc2c(F)c(Nc3ccc(Br)cc3Cl)c(C(=O)NOCCO)cc21 [Selumetinib]; settings: max 10 µM
Outline: as §1

[19] = compound: COc1cc(Nc2ncc3c(n2)-c2ccc(Cl)cc2C(c2c(F)cccc2OC)=NC3)ccc1C(=O)O [Alisertib]; settings: max 10 µM
Outline: as §1

[20] = compound: C=CCn1c(=O)c2cnc(Nc3ccc(N4CCN(C)CC4)cc3)nc2n1-c1cccc(C(C)(C)O)n1 [AZD1775]; settings: max 3 µM
Outline: as §1

[21] = compound: C[C@@H](c1ccc2nccn2c1)n1nnc2ncc(-c3cnn(C)c3)nc21 [Savolitinib]; settings: max 1 µM
Outline: as §1

[22] = compound: CC1=CN2[C@@H](C1)C=NC3=CC(=C(C=C3C2=O)OC)OCCCCCOC4=C(C=C5C(=C4)N=C[C@@H]6CC(=CN6C5=O)C)OC [SG3199]; settings: max 0.001 µM
Outline: as §1

[23] = compound: CS(=O)(=O)CCNCc1ccc(-c2ccc3ncnc(Nc4ccc(OCc5cccc(F)c5)c(Cl)c4)c3c2)o1 [Lapatinib]; settings: max 10 µM
Outline: as §1

[24] = compound: O=c1[nH]cc(F)c(=O)[nH]1 [5-Fluorouracil]; settings: max 20 µM
Outline: as §1

[25] = compound: CC1=C(C(=CC=C1)Cl)NC(=O)C2=CN=C(S2)NC3=CC(=NC(=N3)C)N4CCN(CC4)CCO [Dasatinib]; settings: max 2 µM
Outline: as §1

[26] = compound: O=C(c1cc(Cc2n[nH]c(=O)c3ccccc23)ccc1F)N1CCN(C(=O)C2CC2)CC1 [Olaparib]; settings: max 10 µM
Outline: as §1

[27] = compound: CC(=O)c1c(C)c2cnc(Nc3ccc(N4CCNCC4)cn3)nc2n(C2CCCC2)c1=O [Palbociclib]; settings: max 10 µM
Outline: as §1

[28] = compound: Cc1nc(-c2cn3c(n2)-c2ccc(-c4cnn(C(C)(C)C(N)=O)c4)cc2OCC3)n(C(C)C)n1 [Taselisib]; settings: max 10 µM
Outline: as §1

[29] = compound: CCN(CCO)CCCOc1ccc2c(Nc3cc(CC(=O)Nc4cccc(F)c4)[nH]n3)ncnc2c1 [AZD2811]; settings: max 1 µM
Outline: as §1

[30] = compound: COc1cc2ncnc(Nc3ccc(F)c(Cl)c3)c2cc1OCCCN1CCOCC1 [Gefitinib]; settings: max 10 µM
Outline: as §1

[31] = compound: COc1nnc2ccc(N3CCC(c4ccc(OCCN5CCN(C)C(=O)[C@H]5C)cc4)CC3)nn12 [AZD5153]; settings: max 1 µM
Outline: as §1

[32] = compound: COc1cccc(OCCCN)c1-c1cc(Nc2cnc(C#N)cn2)n[nH]1 [Prexasertib]; settings: max 1 µM
Outline: as §1

[33] = compound: Cc1c2c(nn1C)CSCc1cc(n(C)n1)CSc1cc(c3ccccc3c1)OCCCc1c(C(=O)O)n(C)c3c-2c(Cl)ccc13 [AZD5991]; settings: max 1 µM
Outline: as §1

[34] = compound: C[C@@H](Nc1cc(F)cc(F)c1)c1cc(C(=O)N(C)C)cc2c(=O)cc(N3CCOCC3)oc12 [AZD8186]; settings: max 10 µM
Outline: as §1

[35] = compound: Cc1cc2ncnn2cc1Nc1ncc2c(n1)n(C1CCOCC1)c(=O)n2C [AZD7648]; settings: max 10 µM
Outline: as §1

Row | Cell Line | IC50, cell viability 72 h [1] [µM] | IC50, cell viability 72 h [2] [nM] | IC50, cell viability 72 h [3] [nM] | IC50, cell viability 72 h [4] [nM] | IC50, cell viability 72 h [5] [nM] | IC50, cell viability 72 h [6] [nM] | IC50, cell viability 72 h [7] [µM] | IC50, cell viability 72 h [8] [µM] | IC50, cell viability 72 h [9] [µM] | IC50, cell viability 72 h [10] [nM] | IC50, cell viability 72 h [11] [nM] | IC50, cell viability 72 h [12] [nM] | IC50, cell viability 72 h [13] [µM] | IC50, cell viability 72 h [14] [µM] | IC50, cell viability 72 h [15] [µM] | IC50, cell viability 72 h [16] [µM] | IC50, cell viability 72 h [17] [nM] | IC50, cell viability 72 h [18] [µM] | IC50, cell viability 72 h [19] [nM] | IC50, cell viability 72 h [20] [nM] | IC50, cell viability 72 h [21] [nM] | IC50, cell viability 72 h [22] [nM] | IC50, cell viability 72 h [23] [µM] | IC50, cell viability 72 h [24] [µM] | IC50, cell viability 72 h [25] [nM] | IC50, cell viability 72 h [26] [µM] | IC50, cell viability 72 h [27] [µM] | IC50, cell viability 72 h [28] [µM] | IC50, cell viability 72 h [29] [nM] | IC50, cell viability 72 h [30] [µM] | IC50, cell viability 72 h [31] [nM] | IC50, cell viability 72 h [32] [nM] | IC50, cell viability 72 h [33] [nM] | IC50, cell viability 72 h [34] [µM] | IC50, cell viability 72 h [35] [µM]
1 | CAL-148 (Breast Carcinoma) | 0.274 | 54.9 | > 3000 | > 1000 | 29.9 | > 1000 | > 10 | 0.59 | > 5 | > 300 | > 1000 | 45.2 | > 10 | > 10 | 1.38 | 3.82 | 2.5 | > 10 | 1330 | 206 | > 1000 | > 1 | > 10 | > 20 | > 2000 | > 10 | > 10 | 0.241 | 26.2 | > 10 | 803 | 234 | > 1000 | > 10 | > 10
2 | CCRF-CEM (T-Lymphoblastic Leukemia) | 7.97 | 62.6 | > 3000 | 55.2 | 32.6 | > 1000 | 0.77 | 0.202 | > 5 | > 300 | > 1000 | 4.87 | > 10 | 1.55 | 3.98 | 0.992 | 1.91 | > 10 | 73.7 | 134 | > 1000 | > 1 | > 10 | > 20 | > 2000 | > 10 | 1.95 | 7.25 | 6.51 | > 10 | 523 | 3.26 | > 1000 | > 10 | > 10
3 | CaR-1 (Colorectal Carcinoma) | > 10 | 957 | > 3000 | > 1000 | 228 | > 1000 | > 10 | > 10 | > 5 | > 300 | > 1000 | 171 | > 10 | > 10 | > 10 | > 10 | 28.2 | > 10 | > 10000 | > 3000 | > 1000 | > 1 | > 10 | > 20 | > 2000 | > 10 | > 10 | 6.55 | > 1000 | > 10 | > 1000 | 279 | > 1000 | > 10 | > 10
4 | Calu-3 (Lung Adenocarcinoma) | > 10 | > 1000 | > 3000 | > 1000 | > 300 | > 1000 | > 10 | 5.55 | > 5 | > 300 | > 1000 | > 3000 | > 10 | > 10 | > 10 | > 10 | > 300 | > 10 | > 10000 | 2890 | > 1000 | > 1 | 1.78 | > 20 | > 2000 | > 10 | > 10 | 2.79 | > 1000 | 3.73 | 337 | > 1000 | > 1000 | > 10 | > 10
5 | DoTc2-4510 (Cervical Carcinoma) | > 10 | 518 | > 3000 | > 1000 | > 300 | > 1000 | > 10 | > 10 | > 5 | > 300 | > 1000 | 456 | > 10 | > 10 | > 10 | > 10 | 9.33 | > 10 | > 10000 | 2900 | > 1000 | > 1 | > 10 | > 20 | > 2000 | > 10 | > 10 | 4.86 | > 1000 | > 10 | > 1000 | 59.5 | > 1000 | > 10 | > 10
